In the supplement of paper PMC4862054:

Tests used:
Settings in all cases: 72 h
[1] = tested on: MCF-10A
Procedure, shortened: (§1)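 The plates used were 384-well plates holding compound at 5 concentrations in 10-fold steps across a compound-specific 10,000-fold range, into which breast cancer cell lines were seeded in 20 µl suspension. Following 72 h incubation, CellTox Green fluorescence was read at 485/520 nm, and CellTiter-Glo luminescence was read after 10 min at room temperature. Normalisation on each plate used 0.1 % DMSO and a positive kill control. Dose-response curves gave the EC50, which was censored at the top concentration.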

[2] = tested on: MDA-MB-231
Procedure, shortened: as §1

[3] = tested on: HCC1599
Procedure, shortened: as §1

[4] = tested on: MDA-MB-468
Procedure, shortened: as §1

[5] = tested on: BT-549
Procedure, shortened: as §1

[6] = tested on: CAL-85-1
Procedure, shortened: as §1

[7] = tested on: Hs578T
Procedure, shortened: as §1

[8] = tested on: HCC1143
Procedure, shortened: as §1

[9] = tested on: MDA-MB-436
Procedure, shortened: as §1

[10] = tested on: SK-BR-3
Procedure, shortened: as §1

[11] = tested on: HDQ-P1
Procedure, shortened: as §1

[12] = tested on: CAL-51
Procedure, shortened: as §1

[13] = tested on: CAL-148
Procedure, shortened: as §1

[14] = tested on: DU-4475
Procedure, shortened: as §1

[15] = tested on: CAL-120
Procedure, shortened: as §1

[16] = tested on: BT-474
Procedure, shortened: as §1

[17] = tested on: MDA-MB-231; remark: listed apart in the source
Procedure, shortened: (§2)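 Rows with a drug sensitivity score of zero were dropped, and EC50 was taken from the fitted percent-inhibition dose-response curve, censored at the highest concentration. Data were normalised on each plate to vehicle and a positive kill control and checked by Z'-factor. The assay seeded breast cancer cell lines in 20 µl onto 384-well plates pre-loaded with compound in 5 µl medium for 72 h, then added 2.5 µl CellTiter-Blue for 2 h at 37 °C and read fluorescence at 560/590 nm.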

[18] = tested on: HCC1599; remark: listed apart in the source
Procedure, shortened: as §2

[19] = tested on: HCC1937
Procedure, shortened: as §2

[20] = tested on: MDA-MB-468; remark: listed apart in the source
Procedure, shortened: as §2

[21] = tested on: BT-549; remark: listed apart in the source
Procedure, shortened: as §2

[22] = tested on: Hs578T; remark: listed apart in the source
Procedure, shortened: as §2

[23] = tested on: HCC1143; remark: listed apart in the source
Procedure, shortened: as §2

[24] = tested on: MDA-MB-436; remark: listed apart in the source
Procedure, shortened: as §2

[25] = tested on: SK-BR-3; remark: listed apart in the source
Procedure, shortened: as §2

[26] = tested on: CAL-120; remark: listed apart in the source
Procedure, shortened: as §2

[27] = tested on: MDA-MB-468; remark: listed apart in the source
Protocol: (§3)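 Drug sensitivity and resistance testing (DSRT) of breast cancer cell lines in 384-well plates, 5 concentrations in 10-fold dilutions over a compound-specific 10,000-fold range. After 72 h, cytotoxicity was read by CellTox Green fluorescence and viability by CellTiter-Glo luminescence (multiplexed), normalised to DMSO and benzethonium chloride controls. EC50 is the inflection point of the fitted dose-response curve (bottom asymptote free, so it can be relative for partial curves) and is censored at the highest tested concentration. Rows with DSS 0 (no meaningful response) were excluded.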

[28] = tested on: CAL-85-1; remark: listed apart in the source
Protocol: as §3

[29] = tested on: CAL-148; remark: listed apart in the source
Protocol: as §3

[30] = tested on: MDA-MB-453
Procedure, shortened: as §2

[31] = tested on: CAL-85-1; remark: listed apart in the source
Procedure, shortened: as §2

[32] = tested on: CAL-51; remark: listed apart in the source
Procedure, shortened: as §2

[33] = tested on: CAL-148; remark: listed apart in the source
Procedure, shortened: as §2

[34] = tested on: DU-4475; remark: listed apart in the source
Procedure, shortened: as §2

[35] = tested on: HCC1937; remark: listed apart in the source
Procedure, shortened: as §1

[36] = tested on: MDA-MB-453; remark: listed apart in the source
Procedure, shortened: as §1

[37] = tested on: MFM-223
Procedure, shortened: as §1

[38] = tested on: MCF-10A; remark: listed apart in the source
Protocol: as §3

[39] = tested on: MDA-MB-231; remark: listed apart in the source
Protocol: as §3

[40] = tested on: HCC1599; remark: listed apart in the source
Protocol: as §3

[41] = tested on: MFM-223; remark: listed apart in the source
Protocol: as §3

[42] = tested on: Hs578T; remark: listed apart in the source
Protocol: as §3

[43] = tested on: HDQ-P1; remark: listed apart in the source
Protocol: as §3

[44] = tested on: BT-474; remark: listed apart in the source
Protocol: as §3

[45] = tested on: MFM-223; remark: listed apart in the source
Procedure, shortened: as §2

[46] = tested on: HCC1143; remark: listed apart in the source
Protocol: as §3

[47] = tested on: HDQ-P1; remark: listed apart in the source
Procedure, shortened: as §2

[48] = tested on: BT-549; remark: listed apart in the source
Protocol: as §3

EC50, CellTiter-Glo [2] [nM] | EC50, CellTiter-Glo [3] [nM] | EC50, CellTiter-Glo [4] [nM] | EC50, CellTiter-Glo [5] [nM] | EC50, CellTiter-Glo [8] [nM] | EC50, CellTiter-Glo [9] [nM] | EC50, CellTiter-Glo [10] [nM] | EC50, CellTiter-Glo [16] [nM] | SMILES | EC50, CellTiter-Glo [1] [nM] | EC50, CellTiter-Glo [6] [nM] | EC50, CellTiter-Glo [7] [nM] | EC50, CellTiter-Glo [11] [nM] | EC50, CellTiter-Glo [12] [nM] | EC50, CellTiter-Glo [13] [nM] | EC50, CellTiter-Glo [15] [nM] | EC50, CellTox Green [27] [nM] | EC50, CellTox Green [28] [nM] | EC50, CellTox Green [29] [nM] | EC50, CellTiter-Glo [37] [nM] | EC50, CellTox Green [39] [nM] | also measured
524 | 1740 | 627 | 211 | 320 | 219 | 201 | 196 | Nc1nc(Cl)nc2c1ncn2[C@@H]1O[C@H](CO)[C@@H](O)[C@@H]1F [Clofarabine] | 675 | 398 | 3150 | 482 | 261 | 601 | 305 | > 10000 | 1420 | 169 | – | – | EC50, CellTiter-Glo [14]: 872 nM; EC50, CellTiter-Blue viability [17]: 20.5 nM; EC50, CellTiter-Blue viability [18]: 2220 nM; EC50, CellTiter-Blue viability [19]: 180 nM; EC50, CellTiter-Blue viability [20]: 453 nM; EC50, CellTiter-Blue viability [21]: 340 nM; EC50, CellTiter-Blue viability [22]: 149 nM; EC50, CellTiter-Blue viability [23]: 118 nM; EC50, CellTiter-Blue viability [24]: 104 nM; EC50, CellTiter-Blue viability [25]: 90.6 nM; EC50, CellTiter-Blue viability [26]: 116 nM; EC50, CellTiter-Blue viability [30]: 484 nM; EC50, CellTiter-Blue viability [31]: 152 nM; EC50, CellTiter-Blue viability [32]: 870 nM; EC50, CellTiter-Blue viability [33]: 563 nM; EC50, CellTiter-Blue viability [34]: 472 nM
5.9 | 14.8 | 23.7 | 13.9 | 12 | 9 | 6.99 | 12.9 | CCc1cnn2c(NCc3ccc[n+]([O-])c3)cc(N3CCCC[C@H]3CCO)nc12 [Dinaciclib] | 45.8 | 5.42 | 16 | 12.3 | 12.8 | 26.9 | 17.9 | 17.1 | 22 | 28.3 | 21.2 | 8.07 | EC50, CellTiter-Glo [35]: 21.9 nM; EC50, CellTiter-Glo [36]: 26.1 nM; EC50, CellTiter-Glo [14]: 20.6 nM; EC50, CellTox Green [38]: 77.4 nM; EC50, CellTox Green [40]: 14.1 nM; EC50, CellTox Green [41]: 22 nM; EC50, CellTox Green [42]: 26.4 nM; EC50, CellTox Green [43]: 8.27 nM; EC50, CellTox Green [44]: 13.2 nM
600 | – | 772 | – | 317 | > 1000 | – | 145 | COc1cc2c(Oc3ccc(NC(=O)C4(C(=O)Nc5ccc(F)cc5)CC4)cc3F)ccnc2cc1OCCCN1CCOCC1 [Foretinib] | 854 | – | – | – | 490 | 610 | 179 | 374 | – | 712 | 111 | 129 | EC50, CellTiter-Blue viability [45]: 62.5 nM; EC50, CellTiter-Blue viability [22]: 756 nM; EC50, CellTiter-Blue viability [24]: 13.8 nM; EC50, CellTiter-Blue viability [25]: > 1000 nM; EC50, CellTiter-Blue viability [26]: 787 nM; EC50, CellTox Green [46]: 693 nM; EC50, CellTiter-Blue viability [47]: 157 nM; EC50, CellTiter-Blue viability [32]: 473 nM; EC50, CellTiter-Blue viability [33]: 675 nM; EC50, CellTiter-Blue viability [34]: 748 nM
452 | – | – | 599 | 530 | – | > 2500 | 1160 | COc1cc(Nc2ncc(F)c(Nc3ccc4c(n3)N(COP(=O)(O)O)C(=O)C(C)(C)O4)n2)cc(OC)c1OC [Fostamatinib] | 451 | 1560 | 938 | 1660 | – | – | 405 | – | 725 | – | 222 | 267 | EC50, CellTiter-Glo [35]: > 2500 nM; EC50, CellTox Green [48]: 1.6 nM; EC50, CellTox Green [42]: 1080 nM
